Test results as given in PMC6151383 (Molecules : A Journal of Synthetic Chemistry and Natural …, 2017).
Converted amounts (≈) assume the structure as drawn. Where two headings read alike, the source gives them in different places.

How the values were obtained:
[1] = system: Candida tropicalis 156; experiment: Antifungal microdilution broth MIC, C. tropicalis; type: cell-based; conditions: Candida tropicalis, 156; 48 h incubation; read-out: MIC CT 48 h
[2] = system: Candida glabrata 20/I; experiment: Antifungal microdilution broth MIC, C. glabrata; type: cell-based; conditions: Nakaseomyces glabratus, 48 h incubation, read-out: MIC CG 48 h
[3] = system: Staphylococcus epidermidis H 6966/08; experiment: Antibacterial microdilution broth MIC, S. epidermidis; type: cell-based
[4] = system: Mycobacterium tuberculosis 331/88 (H37Rv); experiment: In vitro antimycobacterial MIC, M. tuberculosis; type: cell-based
[5] = system: Mycobacterium avium 330/88; experiment: In vitro antimycobacterial MIC, M. avium; type: cell-based
[6] = system: M. kansasii 6509/96; experiment: In vitro antimycobacterial MIC, M. kansasii clinical isolate; type: cell-based; conditions: Mycobacterium kansasii
[7] = system: Mycobacterium kansasii 235/80; experiment: In vitro antimycobacterial MIC, M. kansasii 235/80; type: cell-based
[8] = system: Trichophyton interdigitale 445; experiment: Antifungal microdilution broth MIC, T. interdigitale; type: cell-based; conditions: Trichophyton interdigitale, 445
[9] = system: Aspergillus fumigatus 231; experiment: Antifungal microdilution broth MIC, A. fumigatus; type: cell-based
[10] = system: Trichosporon asahii 1188; experiment: Antifungal microdilution broth MIC, T. asahii; type: cell-based; conditions: Trichosporon asahii, 1188; 48 h incubation; read-out: MIC TA 48 h
[11] = system: Pseudomonas aeruginosa CCM 1961; experiment: Antibacterial microdilution broth MIC, P. aeruginosa; type: cell-based; conditions: 48 h incubation, read-out: MIC PA 48 h
[12] = system: Escherichia coli CCM 4517; experiment: Antibacterial microdilution broth MIC, E. coli; type: cell-based
[13] = system: ESBL-positive Klebsiella pneumoniae J 14368/08
[14] = system: Staphylococcus aureus CCM 4516/08; experiment: Antibacterial microdilution broth MIC, S. aureus; type: cell-based
[15] = system: Enterococcus faecalis J 14365/08; experiment: Antibacterial microdilution broth MIC, E. faecalis; type: cell-based
[16] = system: Candida albicans ATCC 44859; experiment: Antifungal microdilution broth MIC, C. albicans; type: cell-based; conditions: ATCC44859, 48 h incubation, read-out: MIC CA 48 h
[17] = system: Lichtheimia corymbifera 272; experiment: Antifungal microdilution broth MIC, L. corymbifera; type: cell-based
[18] = system: Klebsiella pneumoniae D 11750/08; experiment: Antibacterial microdilution broth MIC, K. pneumoniae; conditions: 48 h incubation
[19] = system: Candida krusei E28; experiment: Antifungal microdilution broth MIC, C. krusei; type: cell-based; conditions: Pichia kudriavzevii, E28; 48 h incubation; read-out: MIC CK 48 h
[20] = system: Klebsiella pneumoniae D 11750/08
[21] = system: yeasts (Candida sp., T. asahii); experiment: Antifungal activity against yeasts; type: cell-based; conditions: range over Candida sp. and T. asahii; read-out: MIC for yeasts
[22] = Staphylococcus epidermidis, H6966/08, 48 h incubation, read-out: MIC SE 48 h
[23] = Staphylococcus epidermidis, H6966/08, incubation time not given, read-out: MIC for S. epidermidis
[24] = 336 h, 14 d incubation, read-out: MIC Mtb. 331/88 14 d
[25] = 504 h, 21 d incubation, read-out: MIC Mtb. 331/88 21 d
[26] = 330/88, 336 h, 14 d incubation, read-out: MIC M. avium 330/88 14 d
[27] = 330/88, 504 h, 21 d incubation, read-out: MIC M. avium 330/88 21 d
[28] = 6509/96, 168 h, 7 d incubation, read-out: MIC M. kansasii 6509/96 7 d
[29] = 6509/96, 336 h, 14 d incubation, read-out: MIC M. kansasii 6509/96 14 d
[30] = 6509/96, 504 h, 21 d incubation, read-out: MIC M. kansasii 6509/96 21 d
[31] = 235/80, 168 h, 7 d incubation, read-out: MIC M. kansasii 235/80 7 d
[32] = 235/80, 336 h, 14 d incubation, read-out: MIC M. kansasii 235/80 14 d
[33] = 235/80, 504 h, 21 d incubation, read-out: MIC M. kansasii 235/80 21 d
[34] = 72 h incubation, read-out: MIC TI 72 h
[35] = 120 h incubation, read-out: MIC TI 120 h
[36] = Aspergillus fumigatus, 231, 24 h, read-out: MIC AF 24 h
[37] = Aspergillus fumigatus, 231, 48 h, read-out: MIC AF 48 h
[38] = Pseudomonas aeruginosa, CCM1961
[39] = Staphylococcus aureus, CCM4516, 48 h incubation, read-out: MIC SA 48 h

Compound | MIC [1] [µM] | MIC [2] [µM] | MIC [3, 22] [µM] | MIC [3, 23] [µM] | MIC [4, 24] [µM] | MIC [4, 25] [µM] | MIC [5, 26] [µM] | MIC [5, 27] [µM] | MIC [6, 28] [µM] | MIC [6, 29] [µM] | MIC [6, 30] [µM] | MIC [7, 31] [µM] | MIC [7, 32] [µM] | MIC [7, 33] [µM] | MIC [8, 34] [µM] | MIC [8, 35] [µM] | MIC [9, 36] [µM] | MIC [9, 37] [µM] | MIC [10] [µM] | MIC [11, 38] [µM] | further results
O=S(=O)(Nc1ncccn1)c1ccc(N=Cc2cc(I)cc(I)c2O)cc1 [Compound 2p, 4-[(2-Hydroxy-3,5-diiodobenzylidene)amino]-N-(pyrimidin-2-yl)benzenesulfonamide] | 7.81 (≈ 4.73 µg/mL) | 3.9 (≈ 2.36 µg/mL) | 7.81 (≈ 4.73 µg/mL) | 7.81 (≈ 4.73 µg/mL) | 250 (≈ 152 µg/mL) | 250 (≈ 152 µg/mL) | 250 (≈ 152 µg/mL) | 500 (≈ 303 µg/mL) | 62.5 (≈ 37.9 µg/mL) | 125 (≈ 75.8 µg/mL) | 250 (≈ 152 µg/mL) | 125 (≈ 75.8 µg/mL) | 250 (≈ 152 µg/mL) | 250 (≈ 152 µg/mL) | 15.6 (≈ 9.47 µg/mL) | 15.6 (≈ 9.47 µg/mL) | 62.5 (≈ 37.9 µg/mL) | 62.5 (≈ 37.9 µg/mL) | 3.9 (≈ 2.36 µg/mL) | 500 (≈ 303 µg/mL) | MIC ([12]; Escherichia coli, CCM4517, 24 h, read-out: MIC EC 24 h): 125 µM (≈ 75.8 µg/mL); MIC ([12]; Escherichia coli, CCM4517, 48 h, read-out: MIC EC 48 h): 125 µM (≈ 75.8 µg/mL); MIC KP-E 48 h ([13]; 48 h incubation): 125 µM (≈ 75.8 µg/mL); MIC [14, 39]: 7.81 µM (≈ 4.73 µg/mL); MIC ([15]; Enterococcus faecalis, J14365/08, 24 h, read-out: MIC EF 24 h): 125 µM (≈ 75.8 µg/mL); MIC ([15]; Enterococcus faecalis, J14365/08, 48 h, read-out: MIC EF 48 h): 125 µM (≈ 75.8 µg/mL); MIC [16]: 3.9 µM (≈ 2.36 µg/mL); MIC ([17]; Lichtheimia corymbifera, 272, 24 h, read-out: MIC LC 24 h): 62.5 µM (≈ 37.9 µg/mL); MIC ([17]; Lichtheimia corymbifera, 272, 48 h, read-out: MIC LC 48 h): 62.5 µM (≈ 37.9 µg/mL); MIC KP 48 h [18]: 125 µM (≈ 75.8 µg/mL); MIC [19]: 7.81 µM (≈ 4.73 µg/mL)
O=S(=O)(Nc1ncccn1)c1ccc(N=Cc2cc(O)ccc2O)cc1 [Compound 2i, 4-[(2,5-Dihydroxybenzylidene)amino]-N-(pyrimidin-2-yl)benzenesulfonamide] | 15.6 (≈ 5.79 µg/mL) | 15.6 (≈ 5.79 µg/mL) | 15.6 (≈ 5.79 µg/mL) | 15.6 (≈ 5.79 µg/mL) | 125 (≈ 46.3 µg/mL) | 125 (≈ 46.3 µg/mL) | 500 (≈ 185 µg/mL) | 1000 (≈ 370 µg/mL) | 62.5 (≈ 23.1 µg/mL) | 125 (≈ 46.3 µg/mL) | 125 (≈ 46.3 µg/mL) | 62.5 (≈ 23.1 µg/mL) | 125 (≈ 46.3 µg/mL) | 125 (≈ 46.3 µg/mL) | 1.95 (≈ 0.722 µg/mL) | 1.95 (≈ 0.722 µg/mL) | 125 (≈ 46.3 µg/mL) | 125 (≈ 46.3 µg/mL) | 15.6 (≈ 5.79 µg/mL) | 500 (≈ 185 µg/mL) | MIC KP 24 h ([20]; 24 h): >500 µM; MIC KP 48 h ([20]; 48 h): >500 µM; MIC ([12]; Escherichia coli, CCM4517, 48 h incubation, read-out: MIC EC 48 h): 500 µM (≈ 185 µg/mL); MIC KP-E 24 h ([13]; 24 h): >500 µM; MIC KP-E 48 h ([13]; 48 h): >500 µM; MIC ([14]; Staphylococcus aureus, CCM 4516 / MRSA, S. aureus incl. MRSA, incubation time not given, read-out: MIC for S. aureus): 31.2 µM (≈ 11.6 µg/mL); MIC [14, 39]: 31.2 µM (≈ 11.6 µg/mL); MIC ([15]; Enterococcus faecalis, J14365/08, 48 h incubation, read-out: MIC EF 48 h): 250 µM (≈ 92.6 µg/mL); MIC [16]: 15.6 µM (≈ 5.79 µg/mL); MIC ([17]; Lichtheimia corymbifera, 272, 48 h incubation, read-out: MIC LC 48 h): 500 µM (≈ 185 µg/mL); MIC [21]: 15.6 to 31.2 µM (≈ 5.79 to 11.6 µg/mL); MIC [19]: 31.2 µM (≈ 11.6 µg/mL)
Bacitracin [reference compound] | – | – | – | – | – | – | – | – | – | – | – | – | – | – | – | – | – | – | – | – | MIC ([3]; 48 h incubation, read-out: MIC SE 48 h): 31.25 µM; MIC [11]: >500 µM; MIC ([12]; 48 h incubation, read-out: MIC EC 48 h): >500 µM; MIC KP-E 48 h ([13]; 48 h incubation): >500 µM; MIC ([14]; 48 h incubation, read-out: MIC SA 48 h): 15.62 µM; MIC ([15]; 48 h incubation, read-out: MIC EF 48 h): 62.5 µM; MIC KP 48 h [18]: >500 µM
